In patent US20050048490A1, “Proteins associated with cell growth, differentiation, and death” (incyte corp., priority 2002, published 2005):

Tests used:
[1] = tested on: SEQ ID NO:96; test: Microarray expression analysis, steroid-treated versus untreated C3A cells; assay type: cell-based, human; conditions: early confluent C3A cells treated at 1, 10, and 100 μM for 1, 3, and 6 hours
Method: (§1) Total RNA is isolated from tissue samples using the guanidinium thiocyanate method and poly(A)^+ RNA is purified using the oligo-(dT) cellulose method. Each poly(A)^+ RNA sample is reverse transcribed using MMLV reverse-transcriptase, 0.05 pg/μl oligo-(dT) primer (21mer), 1× first strand buffer, 0.03 units/μl RNase inhibitor, 500 μM dATP, 500 μM dGTP, 500 μM dTTP, 40 μM dCTP, 40 μM dCTP-Cy3 (BDS) or dCTP-Cy5 (Amersham Biosciences). The reverse transcription reaction is performed in a […] containing 200 ng poly(A)^+ RNA with GEMBRIGHT kits (Incyte Genomics). Specific control poly(A)^+ RNAs are synthesized by in vitro transcription from non-coding yeast genomic DNA. […]
(§2) Sequences of the present invention are used to generate array elements. […] Array elements are amplified in thirty cycles of PCR from an initial quantity of 1-2 ng to a final quantity greater than 5 μg. […]
(§3) Reporter-labeled hybridization complexes are detected with a microscope equipped with an Innova 70 mixed gas 10 W laser (Coherent, Inc., Santa Clara Calif.) capable of generating spectral lines at 488 nm for excitation of Cy3 and at 632 nm for excitation of Cy5. […]
(§4) A grid is superimposed over the fluorescence signal image such that the signal from each spot is centered in each element of the grid. […]

[2] = tested on: SEQ ID NO:94; test: Microarray expression analysis, activated versus untreated Jurkat cells; assay type: cell-based, human; conditions: Jurkat cells treated with combinations of graded doses of PMA (5 nM-1 μM) and ionomycin (50 ng/ml-10μ/ml), 1 hour time point
Method: as §1, §2, §3, §4

[3] = tested on: SEQ ID NO:102; test: Microarray expression analysis, TNF-α treated versus untreated HUVECs; assay type: cell-based, human; conditions: HUVECs at 85% confluence treated for 0.33, 0.66, 1, 4, 8, 24, 48, and 72 hours, versus untreated HUVECs (0 hour)
Method: as §1, §2, §3, §4

[4] = tested on: SEQ ID NO:101; test: as above; assay type: cell-based, human; conditions: HUVECs at 85% confluence treated for 0.33, 0.66, 1, 4, 8, 24, 48, and 72 hours, versus untreated HUVECs (0 hour)
Method: as §1, §2, §3, §4

[5] = tested on: SEQ ID NO:104; test: Microarray expression analysis, preadipocytes exposed to differentiation factors versus untreated; assay type: cell-based; conditions: human preadipocytes treated with human insulin and PPAR-γ agonist for 3 days, then insulin
Method: as §1, §2, §3, §4

“6-methyl-17-hydroxyprogesterone [medroxyprogesterone]” was tested, and the “expression of SEQ ID NO:96” value [1] was “decreased expression”.
For `CCCCCCCCCCCCCC(=O)O[C@@H]1[C@@H](C)[C@@]2(O)[C@@H](C=C(CO)C[C@]3(O)C(=O)C(C)=C[C@@H]23)[C@@H]2C(C)(C)[C@]12OC(C)=O` [PMA, Phorbol myristate acetate], the “expression of SEQ ID NO:94” value [2] was “decreased expression”.
`C[C@H]1C[C@H]2[C@@H]3CCC4=CC(=O)C=C[C@]4(C)[C@@]3(Cl)[C@@H](O)C[C@]2(C)[C@@]1(O)C(=O)CO` [beclomethasone, Beclomethasone] was tested, and the “expression of SEQ ID NO:96” value [1] was “decreased expression”.
`C[C@H](CCC(=O)O)C[C@H](C)C[C@H](C)C(=O)/C=C(\O)[C@H](C)C[C@H](C)C/C=C/[C@@H](C)[C@@H](O)[C@@H](C)[C@@H](O)C[C@@H]1CC[C@@](C)([C@H]2CC[C@@](C)([C@@H](C)O)O2)O1` [ionomycin, Ionomycin] was tested, and the “expression of SEQ ID NO:94” value [2] was “decreased expression”.
For TNF-α, the “expression of SEQ ID NO:102” value [3] was “decreased expression” and the “expression of SEQ ID NO:101” value [4] was “decreased expression”.
With “human insulin: differentiation factor used on human preadipocytes” the “expression of SEQ ID NO:104” value [5] was “decreased expression”.
